Test system: normal cynomolgus monkeys
Test: GnRH antagonist plus fixed gonadotropin regimen (FSH/LH or FSH only) followed by hCG
Format: in vivo
Conditions: GnRH antagonist 1.0 mg/kg/day with gonadotropin 25 IU/day im, cycle days 3-9, versus gonadotropin-only controls
From the text: All of the groups received a fixed regimen of gonadotropin therapy for seven consecutive days (25 IU/day/im, cycle days 3-9) followed by hCG (1,000 IU/im) on cycle day 10.

With “(Ac-pClPhe^1,pClPhe^2, DTrp^3, DArg^6, DAla^10)GnRH HCl [GnRH antagonist]” the “variability in response to gonadotropin treatment” value was “less”.

— US4845077A, “Method of inducing ovulation” (Serono Laboratories, Inc., priority 1987, dated 1989)
